Test results taken from ChEMBL document CHEMBL5653615 (J Biol Chem, 2013).

Experiments:
[1] = biological target: Serine/threonine-protein kinase B-raf (Homo sapiens) (UniProt P15056); assay: Inhibition of human BRAF at 18.6 nM by HotSpot assay relative to control
[2] = biological target: CDK9/cyclin T1 (Homo sapiens) (UniProt O60563+P50750); assay: Inhibition of human CDK9/cyclin T1 at 18.6 nM by HotSpot assay relative to control; assay type: protein-complex assay
[3] = biological target: T1, Inhibitor of nuclear factor kappa-B kinase subunit alpha (Homo sapiens) (UniProt O15111); assay: Inhibition of human IKKa at 18.6 nM by HotSpot assay relative to control
T1 sequence (whole entry): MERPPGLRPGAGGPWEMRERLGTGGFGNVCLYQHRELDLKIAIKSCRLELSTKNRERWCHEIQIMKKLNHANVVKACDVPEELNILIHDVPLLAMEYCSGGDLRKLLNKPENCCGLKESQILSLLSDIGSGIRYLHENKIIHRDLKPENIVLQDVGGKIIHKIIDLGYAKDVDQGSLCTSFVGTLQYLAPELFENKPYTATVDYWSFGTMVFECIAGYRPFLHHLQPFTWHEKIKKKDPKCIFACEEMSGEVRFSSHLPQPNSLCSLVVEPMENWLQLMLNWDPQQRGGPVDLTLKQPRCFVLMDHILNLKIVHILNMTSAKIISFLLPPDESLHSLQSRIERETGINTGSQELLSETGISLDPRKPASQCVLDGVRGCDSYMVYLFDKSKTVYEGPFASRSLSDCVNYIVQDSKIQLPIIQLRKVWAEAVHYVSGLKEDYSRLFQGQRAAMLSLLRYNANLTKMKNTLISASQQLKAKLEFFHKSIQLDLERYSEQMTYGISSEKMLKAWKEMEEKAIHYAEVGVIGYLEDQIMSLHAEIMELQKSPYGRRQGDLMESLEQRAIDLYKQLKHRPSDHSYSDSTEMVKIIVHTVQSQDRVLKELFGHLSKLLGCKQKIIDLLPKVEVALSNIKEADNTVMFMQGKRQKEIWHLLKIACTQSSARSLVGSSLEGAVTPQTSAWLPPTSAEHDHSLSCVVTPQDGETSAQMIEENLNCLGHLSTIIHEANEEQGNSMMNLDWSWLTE

[4] = biological target: T2, Inhibitor of nuclear factor kappa-B kinase subunit beta (Homo sapiens) (UniProt O14920); assay: Inhibition of human IKKb at 18.6 nM by HotSpot assay relative to control
T2 sequence (whole entry): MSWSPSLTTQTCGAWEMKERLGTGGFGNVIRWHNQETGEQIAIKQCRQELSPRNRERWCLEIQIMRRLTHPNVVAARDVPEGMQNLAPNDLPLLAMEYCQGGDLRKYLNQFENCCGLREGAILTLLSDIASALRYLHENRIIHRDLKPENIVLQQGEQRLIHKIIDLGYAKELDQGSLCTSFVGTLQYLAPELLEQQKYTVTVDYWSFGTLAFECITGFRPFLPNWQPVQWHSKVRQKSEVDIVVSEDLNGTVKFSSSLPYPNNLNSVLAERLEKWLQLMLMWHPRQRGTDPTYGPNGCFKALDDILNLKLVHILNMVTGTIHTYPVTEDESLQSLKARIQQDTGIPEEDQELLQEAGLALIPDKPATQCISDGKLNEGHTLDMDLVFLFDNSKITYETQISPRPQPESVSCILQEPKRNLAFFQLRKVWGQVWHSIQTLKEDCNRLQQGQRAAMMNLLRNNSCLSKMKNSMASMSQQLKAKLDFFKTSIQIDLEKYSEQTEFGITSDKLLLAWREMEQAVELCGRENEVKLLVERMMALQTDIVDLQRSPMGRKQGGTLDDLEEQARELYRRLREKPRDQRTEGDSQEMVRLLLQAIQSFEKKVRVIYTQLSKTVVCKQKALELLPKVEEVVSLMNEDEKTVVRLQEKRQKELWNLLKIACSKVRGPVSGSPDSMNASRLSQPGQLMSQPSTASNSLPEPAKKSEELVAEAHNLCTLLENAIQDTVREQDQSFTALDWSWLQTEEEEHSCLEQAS

[5] = biological target: Tyrosine-protein kinase Lck (Homo sapiens) (UniProt P06239); assay: Inhibition of human LCK at 18.6 nM by HotSpot assay relative to control
Tyrosine-protein kinase Lck (Homo sapiens), sequence (P06239 2-509 limits assumed): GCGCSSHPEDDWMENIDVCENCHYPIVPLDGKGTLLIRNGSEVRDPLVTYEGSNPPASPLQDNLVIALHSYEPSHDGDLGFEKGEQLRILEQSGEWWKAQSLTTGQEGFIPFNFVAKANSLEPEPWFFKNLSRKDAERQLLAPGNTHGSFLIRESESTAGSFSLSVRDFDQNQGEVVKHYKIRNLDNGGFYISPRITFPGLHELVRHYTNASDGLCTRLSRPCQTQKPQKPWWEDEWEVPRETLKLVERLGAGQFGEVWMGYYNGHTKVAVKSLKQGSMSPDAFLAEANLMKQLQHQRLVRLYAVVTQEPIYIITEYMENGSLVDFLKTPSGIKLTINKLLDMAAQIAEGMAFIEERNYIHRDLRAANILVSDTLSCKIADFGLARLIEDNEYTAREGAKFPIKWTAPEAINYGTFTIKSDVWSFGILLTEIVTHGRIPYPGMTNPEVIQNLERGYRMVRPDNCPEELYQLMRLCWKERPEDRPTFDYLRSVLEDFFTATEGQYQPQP

[6] = biological target: MAP kinase-activated protein kinase 2 (Homo sapiens) (UniProt P49137); assay: Inhibition of human MAPKAPK2 at 18.6 nM by HotSpot assay relative to control
[7] = biological target: T3, Mitogen-activated protein kinase kinase kinase 2 (Homo sapiens) (UniProt Q9Y2U5); assay: Inhibition of human MEKK2 at 18.6 nM by HotSpot assay relative to control
T3 sequence (whole entry): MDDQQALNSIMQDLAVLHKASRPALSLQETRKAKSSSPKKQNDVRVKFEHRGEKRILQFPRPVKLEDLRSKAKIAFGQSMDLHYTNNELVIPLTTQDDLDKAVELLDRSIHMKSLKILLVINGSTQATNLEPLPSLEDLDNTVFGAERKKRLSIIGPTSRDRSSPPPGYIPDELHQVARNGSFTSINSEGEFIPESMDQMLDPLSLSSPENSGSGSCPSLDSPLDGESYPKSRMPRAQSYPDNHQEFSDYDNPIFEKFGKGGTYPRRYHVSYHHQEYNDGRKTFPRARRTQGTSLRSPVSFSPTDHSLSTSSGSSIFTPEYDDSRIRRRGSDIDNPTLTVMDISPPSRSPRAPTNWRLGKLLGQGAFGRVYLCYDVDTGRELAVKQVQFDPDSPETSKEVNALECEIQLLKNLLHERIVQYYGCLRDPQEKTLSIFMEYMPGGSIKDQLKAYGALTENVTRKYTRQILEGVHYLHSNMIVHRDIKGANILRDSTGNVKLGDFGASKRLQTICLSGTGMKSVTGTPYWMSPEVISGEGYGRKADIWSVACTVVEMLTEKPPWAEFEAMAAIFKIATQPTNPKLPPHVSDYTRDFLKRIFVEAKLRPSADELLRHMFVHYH

[8] = biological target: Serine/threonine-protein kinase WNK2 (Homo sapiens) (UniProt Q9Y3S1); assay: Inhibition of human WNK2 at 18.6 nM by HotSpot assay relative to control
Serine/threonine-protein kinase WNK2 (Homo sapiens), sequence (Q9Y3S1 whole entry): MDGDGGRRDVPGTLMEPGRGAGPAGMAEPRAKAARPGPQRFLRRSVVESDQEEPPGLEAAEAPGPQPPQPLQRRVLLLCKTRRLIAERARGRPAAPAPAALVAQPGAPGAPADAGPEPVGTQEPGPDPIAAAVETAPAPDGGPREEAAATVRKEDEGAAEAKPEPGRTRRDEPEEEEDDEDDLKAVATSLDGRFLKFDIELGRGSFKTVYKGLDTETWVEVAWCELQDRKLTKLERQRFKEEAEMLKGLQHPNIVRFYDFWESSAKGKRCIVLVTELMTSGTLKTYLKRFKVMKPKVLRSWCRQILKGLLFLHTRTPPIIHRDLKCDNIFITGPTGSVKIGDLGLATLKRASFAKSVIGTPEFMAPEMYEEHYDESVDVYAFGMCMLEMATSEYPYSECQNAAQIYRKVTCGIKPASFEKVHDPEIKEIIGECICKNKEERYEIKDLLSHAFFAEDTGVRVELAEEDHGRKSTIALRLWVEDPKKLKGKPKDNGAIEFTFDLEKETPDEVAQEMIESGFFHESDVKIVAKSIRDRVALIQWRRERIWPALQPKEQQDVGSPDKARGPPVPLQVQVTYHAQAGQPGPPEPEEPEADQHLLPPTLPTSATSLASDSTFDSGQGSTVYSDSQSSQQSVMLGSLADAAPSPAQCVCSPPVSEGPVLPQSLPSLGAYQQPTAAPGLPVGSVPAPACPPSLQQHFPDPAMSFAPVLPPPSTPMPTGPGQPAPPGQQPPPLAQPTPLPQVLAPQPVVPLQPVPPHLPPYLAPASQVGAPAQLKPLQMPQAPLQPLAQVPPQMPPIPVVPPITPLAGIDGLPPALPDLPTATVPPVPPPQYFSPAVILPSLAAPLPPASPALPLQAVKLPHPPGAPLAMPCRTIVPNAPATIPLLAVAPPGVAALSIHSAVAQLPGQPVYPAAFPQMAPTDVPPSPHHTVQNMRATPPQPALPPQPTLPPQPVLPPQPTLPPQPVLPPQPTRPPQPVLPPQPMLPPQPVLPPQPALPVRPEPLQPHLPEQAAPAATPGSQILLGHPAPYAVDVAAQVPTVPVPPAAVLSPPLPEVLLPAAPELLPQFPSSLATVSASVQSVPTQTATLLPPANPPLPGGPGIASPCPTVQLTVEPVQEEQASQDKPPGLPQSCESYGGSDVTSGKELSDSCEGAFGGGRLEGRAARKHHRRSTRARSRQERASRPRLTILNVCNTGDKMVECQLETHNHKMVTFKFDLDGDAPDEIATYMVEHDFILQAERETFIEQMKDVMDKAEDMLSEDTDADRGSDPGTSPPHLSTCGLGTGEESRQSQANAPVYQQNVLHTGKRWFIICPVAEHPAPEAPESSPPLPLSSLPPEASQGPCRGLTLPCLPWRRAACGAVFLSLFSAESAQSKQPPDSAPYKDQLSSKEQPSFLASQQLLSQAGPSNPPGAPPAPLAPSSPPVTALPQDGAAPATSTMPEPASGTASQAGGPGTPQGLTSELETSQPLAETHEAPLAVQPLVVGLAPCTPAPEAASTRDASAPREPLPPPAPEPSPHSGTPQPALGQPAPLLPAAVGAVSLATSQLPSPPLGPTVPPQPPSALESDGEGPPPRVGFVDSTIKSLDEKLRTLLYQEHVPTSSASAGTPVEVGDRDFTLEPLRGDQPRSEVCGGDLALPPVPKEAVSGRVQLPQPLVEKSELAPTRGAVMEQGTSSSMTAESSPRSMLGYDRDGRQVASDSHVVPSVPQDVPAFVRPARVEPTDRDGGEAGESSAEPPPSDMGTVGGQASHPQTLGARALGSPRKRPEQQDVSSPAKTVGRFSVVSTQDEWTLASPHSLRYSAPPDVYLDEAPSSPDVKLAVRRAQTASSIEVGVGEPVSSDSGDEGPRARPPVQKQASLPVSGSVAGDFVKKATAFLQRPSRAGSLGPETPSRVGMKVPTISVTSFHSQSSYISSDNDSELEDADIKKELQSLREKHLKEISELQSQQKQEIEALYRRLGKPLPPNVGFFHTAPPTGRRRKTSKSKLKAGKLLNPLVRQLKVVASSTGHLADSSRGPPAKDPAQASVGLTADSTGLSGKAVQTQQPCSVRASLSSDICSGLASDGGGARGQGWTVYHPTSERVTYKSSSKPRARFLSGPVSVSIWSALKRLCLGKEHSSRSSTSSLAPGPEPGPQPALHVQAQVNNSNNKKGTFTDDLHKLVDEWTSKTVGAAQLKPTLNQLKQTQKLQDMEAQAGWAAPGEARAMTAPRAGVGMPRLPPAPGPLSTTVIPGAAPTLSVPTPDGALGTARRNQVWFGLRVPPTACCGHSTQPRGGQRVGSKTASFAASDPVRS

[9] = biological target: Protein kinase C beta type (Homo sapiens) (UniProt P05771); assay: Inhibition of human PKCb1 at 500 nM by HotSpot assay relative to control
Protein kinase C beta type (Homo sapiens), sequence (P05771 2-671 limits assumed): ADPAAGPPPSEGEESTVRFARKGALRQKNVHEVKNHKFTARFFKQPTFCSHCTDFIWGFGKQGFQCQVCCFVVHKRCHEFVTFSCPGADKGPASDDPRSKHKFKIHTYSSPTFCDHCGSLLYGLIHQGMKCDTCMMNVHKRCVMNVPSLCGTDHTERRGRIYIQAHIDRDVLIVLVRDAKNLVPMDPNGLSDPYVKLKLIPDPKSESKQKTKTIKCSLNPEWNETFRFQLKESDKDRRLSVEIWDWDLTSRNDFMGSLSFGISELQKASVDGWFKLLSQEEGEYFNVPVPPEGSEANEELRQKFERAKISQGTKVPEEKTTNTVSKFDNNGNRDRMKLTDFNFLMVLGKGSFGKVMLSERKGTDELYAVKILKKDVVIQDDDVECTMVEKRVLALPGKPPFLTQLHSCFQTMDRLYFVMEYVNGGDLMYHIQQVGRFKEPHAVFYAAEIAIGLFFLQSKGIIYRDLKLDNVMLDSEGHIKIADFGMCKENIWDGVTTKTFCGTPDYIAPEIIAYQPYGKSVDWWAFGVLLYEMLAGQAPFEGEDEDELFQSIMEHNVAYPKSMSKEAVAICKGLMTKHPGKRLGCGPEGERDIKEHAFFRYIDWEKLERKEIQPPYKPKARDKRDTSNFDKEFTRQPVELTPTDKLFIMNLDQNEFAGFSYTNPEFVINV

[10] = biological target: Ribosomal protein S6 kinase alpha-3 (Homo sapiens) (UniProt P51812); assay: Inhibition of human RSK2 at 1.82 nM by HotSpot assay relative to control
Ribosomal protein S6 kinase alpha-3 (Homo sapiens), sequence (P51812 whole entry): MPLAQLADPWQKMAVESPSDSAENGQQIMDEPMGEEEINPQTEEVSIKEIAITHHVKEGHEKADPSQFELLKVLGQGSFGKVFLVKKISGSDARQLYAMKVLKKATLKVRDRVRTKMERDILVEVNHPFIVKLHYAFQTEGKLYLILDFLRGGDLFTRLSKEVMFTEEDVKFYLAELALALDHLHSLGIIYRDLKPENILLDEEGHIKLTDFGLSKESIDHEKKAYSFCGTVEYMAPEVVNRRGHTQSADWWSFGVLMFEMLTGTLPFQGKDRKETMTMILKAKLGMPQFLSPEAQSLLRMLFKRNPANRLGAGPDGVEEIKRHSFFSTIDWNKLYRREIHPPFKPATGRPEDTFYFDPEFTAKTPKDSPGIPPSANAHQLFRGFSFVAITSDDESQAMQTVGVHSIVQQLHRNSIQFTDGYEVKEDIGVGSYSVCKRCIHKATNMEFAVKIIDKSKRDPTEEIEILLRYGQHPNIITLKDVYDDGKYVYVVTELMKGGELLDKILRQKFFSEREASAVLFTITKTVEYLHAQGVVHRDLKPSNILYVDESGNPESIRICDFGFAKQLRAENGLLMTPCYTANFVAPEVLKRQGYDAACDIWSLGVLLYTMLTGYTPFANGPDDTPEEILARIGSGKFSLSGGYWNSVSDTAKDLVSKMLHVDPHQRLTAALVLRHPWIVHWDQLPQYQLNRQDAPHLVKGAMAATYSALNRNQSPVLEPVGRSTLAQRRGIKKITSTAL

Serine/threonine-protein kinase B-raf (Homo sapiens), sequence (P15056 whole entry): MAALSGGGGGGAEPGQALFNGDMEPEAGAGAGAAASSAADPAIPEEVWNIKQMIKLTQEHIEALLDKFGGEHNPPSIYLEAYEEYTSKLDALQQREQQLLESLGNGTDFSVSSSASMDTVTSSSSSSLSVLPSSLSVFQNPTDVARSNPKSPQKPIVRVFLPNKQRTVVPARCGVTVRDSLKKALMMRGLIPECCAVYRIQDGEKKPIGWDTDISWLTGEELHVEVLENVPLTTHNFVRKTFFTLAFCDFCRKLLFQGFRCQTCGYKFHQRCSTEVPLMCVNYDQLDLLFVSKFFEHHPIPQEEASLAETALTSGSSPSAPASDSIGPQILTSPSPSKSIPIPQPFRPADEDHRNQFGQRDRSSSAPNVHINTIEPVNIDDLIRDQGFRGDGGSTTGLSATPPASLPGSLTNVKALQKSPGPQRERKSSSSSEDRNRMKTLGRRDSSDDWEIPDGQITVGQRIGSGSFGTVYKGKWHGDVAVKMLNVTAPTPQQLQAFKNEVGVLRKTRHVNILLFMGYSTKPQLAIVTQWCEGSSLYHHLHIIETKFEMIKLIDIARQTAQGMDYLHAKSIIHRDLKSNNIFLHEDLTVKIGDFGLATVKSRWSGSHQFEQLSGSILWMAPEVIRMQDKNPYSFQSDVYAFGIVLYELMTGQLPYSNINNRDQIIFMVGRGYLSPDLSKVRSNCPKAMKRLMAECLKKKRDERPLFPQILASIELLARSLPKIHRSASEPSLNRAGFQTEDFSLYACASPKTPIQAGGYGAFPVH

**Q.** How did the inhibition [1] turn out when C[C@]1(O)C[C@@H](c2nc(-c3ccc4ccc(-c5ccccc5)nc4c3)c3c(N)nccn32)C1 was run?
**A.** 7.79%

**Q.** And the inhibition [2]?
**A.** 2.42%

**Q.** What about the inhibition [3] of the same compound?
**A.** 5.65%

**Q.** What about the inhibition [4] of the same compound?
**A.** -2.87%

**Q.** What about the inhibition [5] of the same compound?
**A.** 6.33%

**Q.** What about the inhibition [6] of the same compound?
**A.** 5.71%

**Q.** What about the inhibition [7] of the same compound?
**A.** -2.2%

**Q.** And the inhibition [8]?
**A.** -2.52%

**Q.** How did the inhibition [9] turn out when Nc1n[nH]c2nnc(-c3c(-c4ccccc4)nn4ccccc34)cc12 was run?
**A.** 3.54%

**Q.** Which inhibition [10] does the source give for C[C@@]1(C(=O)Nc2ccc(F)nc2)CCCN1c1nc(Nc2cc(C3CC3)n[nH]2)c2cccn2n1 here?
**A.** 2.83%
